Laboratory results reported in patent US10738041B2, “Ferroportin inhibitors” (Vifor (International) AG, priority 2015, dated 2020).

Experiments:
human Fpn = biological target: T1, human Fpn (Homo sapiens, UniProt Q9NP59); assay: Biophysical Ferroportin-Hepcidin Binding Assay (fluorescence polarization); conditions: average of multiple measurements; 1 μM human Fpn, 20 nM TMR-hepcidin; read-out: FP IC50
T1 construct: FLAG (C); made in house; host or cells: Pichia pastoris
T1 sequence (Q9NP59 1-571): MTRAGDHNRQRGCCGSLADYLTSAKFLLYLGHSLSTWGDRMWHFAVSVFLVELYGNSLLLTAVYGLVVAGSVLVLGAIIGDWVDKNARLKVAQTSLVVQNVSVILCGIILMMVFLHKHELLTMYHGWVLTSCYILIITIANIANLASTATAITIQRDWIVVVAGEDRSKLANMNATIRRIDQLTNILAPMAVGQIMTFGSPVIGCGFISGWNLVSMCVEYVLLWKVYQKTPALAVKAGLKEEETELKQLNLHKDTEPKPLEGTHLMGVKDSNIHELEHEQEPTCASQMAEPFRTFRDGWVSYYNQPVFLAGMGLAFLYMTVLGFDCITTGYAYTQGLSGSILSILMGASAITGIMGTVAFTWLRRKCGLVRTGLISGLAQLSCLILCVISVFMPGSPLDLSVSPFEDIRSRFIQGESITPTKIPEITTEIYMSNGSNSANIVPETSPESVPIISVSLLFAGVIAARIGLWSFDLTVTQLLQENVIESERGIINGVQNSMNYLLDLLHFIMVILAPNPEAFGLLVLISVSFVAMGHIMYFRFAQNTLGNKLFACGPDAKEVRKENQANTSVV
How it was run: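 Purified human Fpn (C-terminal FLAG tag, expressed in Pichia pastoris) at 1 μM final was incubated with 20 nM TMR-hepcidin and serially diluted compounds in duplicate for 90 min at room temperature. Binding inhibition was read as a dose-dependent fall in FP (mP), calculated from parallel and perpendicular fluorescence.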

human Fpn-GFP fusion = biological target: T2, human Fpn-GFP fusion (Homo sapiens, UniProt Q9NP59); assay: Ferroportin Internalization and Degradation Assay (FACS); assay type: cell-based; conditions: average of multiple measurements; Fpn-GFP MFI, HEK-293 cell line #354, FACS
T2 construct: expressed in transfected cells; host or cells: HEK-293 cell line #354 (derivative of HEK-293 Tet-ON Advanced, Clontech)
T2 sequence (Q9NP59 1-571): T1 sequence (Q9NP59 1-571)
Procedure: Growing HEK-293 #354 cells in doxycycline containing media induced expression of human Fpn-GFP fusion protein on the cell surface. […] Small molecular weight Fpn inhibitor compounds were tested for dose-dependent effects on the Fpn-GFP mean fluorescence intensity (MFI) on HEK-293 cell line #354, as described below. HEK #354 cells were harvested from ca. 80% confluent cultures, seeded at 0.6×10^6 (cells/ml in DMEM/F12 GlutaMAX™ medium (Invitrogen, Cat. 31331-028) containing 10% FBS (Clontech, Cat. 631106), 1% Penicillin-Streptomycin (Invitrogen, Cat. 15140-122), 200 μg/ml Hygromycin B (Invitrogen, Cat. 10687-010), Blasticidin 5 μg/ml, (Invitrogen, Cat. R210-01), 4 μg/ml doxycycline (Clontech, Cat. 631311), 50 μl per well of 384 well plates (Greiner; Cat. 781091) and grown at 37° C. with 5% CQ. After overnight incubation, 10 μl/well of dilution series of the test compounds were added in quadruplicates and plates were further incubated overnight at 37° C. with 5% CO2. Cells were washed once with FACS buffer (PBS containing 1% FBS, 2 mM EDTA and 0.05% NaN3), harvested in FACS buffer with 0.5 μg/ml propidium iodide (Sigma, Cat. P4864) and analyzed in a flow cytometer (CANTO™ II, BD Biosciences) equipped with high throughput sampler. Live HEK #354 cells were gated as propidium iodide negative population and analyzed for expression of Fpn-GFP.

naïve WT C57BL/6 mice = assay: Hypoferremia in naïve mice; assay type: in vivo, mouse; conditions: Mus musculus, po, 3 h, naïve WT C57BL/6 mice, relative to vehicle, read-out: Serum Iron Reduction at 3 h (%); for inhibition in vivo at 10 mg/kg: Dose 10 mg/kg p.o.; for inhibition in vivo at 30 mg/kg: Dose 30 mg/kg p.o.; for inhibition in vivo at 100 mg/kg: Dose 100 mg/kg p.o.
Procedure: Female C57BL/6 mice (Janvier, France) at age of 9 weeks were fed a standard diet (Harlan Provimi Kliba 3436) and treated per os (p.o.) with compounds or the corresponding amount of vehicle at a volume of 10 ml/kg body weight. Fpn inhibitors were formulated in 0.5% methylcellulose/water or 20% cremophor EL/water and dosed p.o. in mice at 10, 30 or 100 mg/kg body weight. Three hours later, mice were pre terminally anesthetized in isoflurane chambers and blood was collected by retro-orbital bleeding. Mice were sacrificed by cervical dislocation and spleens, livers and duodena were harvested and used for biomarker analysis. All experiments have been conducted in compliance with the license approved by the responsible veterinarian authorities. Serum was isolated by centrifugation of blood into gel-containing microtainers and serum iron was determined by the MULTIGENT Iron assay (Abbott Diagnostics, 6K95). Eight mice per group were used and one-way ANOVA with Bonferroni's multiple comparison test was performed to analyze the statistical differences between the experimental groups.

SMILES | IC50 (human Fpn) [µM] | EC50 (human Fpn-GFP fusion) [µM] | inhibition in vivo at 10 mg/kg (naïve WT C57BL/6 mice) [%] | inhibition in vivo at 30 mg/kg (naïve WT C57BL/6 mice) [%] | inhibition in vivo at 100 mg/kg (naïve WT C57BL/6 mice) [%]
O=C(NCc1ncccc1F)c1coc(CCNCCc2nc3c(F)cccc3[nH]2)n1 [Example 228] | 0.021 | 0.46 | 13 | 26 | 55
O=C(NCc1ncccc1F)c1coc(CCNCCc2nc3ccccc3[nH]2)n1 [Example 127] | 0.023 | 0.081 | 17 | 47 | 54
O=C(NCc1ncccc1F)c1coc(C2CN(CCc3nc4c(F)cccc4[nH]3)C2)n1 [Example 239] | 0.038 | 0.32 | 12 | 20 | 51
O=C(NCc1ncccc1F)c1csc(CCNCCc2nc3ccccc3[nH]2)n1 [Example 94] | 0.044 | 0.22 | 30 | 50 | 80
